Entries after “also recorded” stand apart in the source; their conditions may differ.
Experiments:
male rats of Wistar line = assay: "open field" test, motor activity of rats (sedative effect); type: in vivo, rat; details: for Motor activity after the preparation's introduction (n): enteral, squares crossed within 5 minutes; for Lowering motor activity relative to the control (%): vs saline; for Lowering motor activity relative to the Valerian extract (%): vs same dose of Valerian extract
Procedure: The sedative effect was measured by the change in motor activity of male rats of Wistar line with the mass of 0.20-0.23 kg in “the open field” test [Guiding and Method Materials in Experimental and Clinical Study of New Drugs. Part 2. M., 1980, pp. 126-133].
Male rats were subjected to the enteral introduction of 0.5 ml of saline solution. Then, the animals were divided into two groups. The rats in the first group were tested in “the open field” 60 minutes after the solution's introduction. The rats in the second group were tested 90 minutes after the introduction. The test consisted of the rat being placed in the center of “the open field”, and then the number of squares of “the open field” that the rat crosses within 5 minutes is counted (an estimation of motor activity).
Valerian extract was steamed until it became dry. Then, the dry remains were dissolved in saline in the required dosage (see table 1 and rated in mg/kg of a rat's body weight). The solution obtained was introduced into rats in the same way as for control. The testing of rats in “the open field” was also carried out as described for control.
Comenic acid was dissolved in saline in the desired dosages (see table 1 below). The solution's pH was adjusted to equal 6.5-6.8 using concentrated NaOH solution. Comenic acid was introduced into the rats in the same way as in control. The testing of rats in “the open field” was carried out as described for control group as well.

Pliss limphosarcoma = assay: growth of transplanted Pliss limphosarcoma in rats; type: in vivo; details: 50 mg/kg i.p., once per day, 5 times per week, 10 injections; tumor volumes day 6, 9, 13, 16 and mortality vs control; Anoceptin 1% solution
Procedure: Comenic acid (in medicinal form, referred to as “Anoceptin™”) was also tested on rats with transplanted tumors (Pliss limphosarcoma) to determine if it stimulated tumor growth (Effect of medicine Anoceptin on the growth of transplantable tumor in rats, State Oncology Institute, 2006, Saint-Petersburg, Russia). Pliss limphosarcoma was transplanted subcutaneously into 20 rats. Forty-eight hours after transplantation, the rats were randomly assigned into groups (10 rats in experimental group, and 10 in control group) and the injections were started. Both groups were injected i.p. (intraperitoneal) once per day, 5 times per week and given a total of 10 injections each. The experimental group was administered 50 mg/kg of comenic acid in each injection, while the control group was injected with 1.5 ml of physiological solution. Comenic acid was utilized in its medicinal form (“Anoceptin™”), a 1% solution with ions of proper moiety. For both groups, the size of the tumor was measured on day 6, 9, 13 and 16 of the experiment, and the volumes were calculated. […] The data was determined to be statistically significant, with p<0.05.

animals [1] = assay: treatment of narcotic dependency / withdrawal syndrome in animals; type: in vivo; details: pharmacologically effective dose
Procedure: (§1) One of the preferred compounds of the invention is comenic acid, also known as 5-hydroxy-4-oxo-4H-pyran-2-carbon acid, as well as 5-hydroxy-gamma-pyrone-2-carboxylic acid. […] The effect is long lasting, up to 24 hours after administration. […] The acid can be administered in a number of pharmaceutically acceptable ways by mixing it with known and biologically acceptable carriers. Administration methods include all parenteral modes, including injection (intravenously, subcutaneously, intramuscularly or intraperitoneal), transdermally, transmucosally, etc. […] This duration compares quite favorably to a typical drug abuse treatment cycle of 3 to 6 months using substitution methods such as methadone.
It is intended that the selected gamma-pyrones as described in the proceeding section be administered as a substitute for the abused drug. Typically, this will involve administration of a therapeutically effective amount of a composition containing the compounds of the invention at least once every twenty-four hours. […] The preferred dosage range is from about 0.05 to about 0.5 mg per kilogram of body weight per day. Such daily dosage can be achieved in a single application, multiple applications or using a continuous release application.

[2] = tested on: opioid (or opioid-like) receptor; assay: patch-clamp experiments, receptor binding (naltrexone block, affinity order); type: cell-based; details: patch-clamp results, decreasing affinity
Excerpt: The physiological effect on the Nav1.8 channel of the following closely related gamma-pyrone derivatives (see FIG. 1) was investigated: I) comenic acid (5-hydroxy-gamma-pyrone-2-carboxylic acid), II) meconic acid (3-hydroxy-gamma-pyrone-2,6-dicarboxylic acid, III) 5-methoxy-gamma-pyrone-2-carboxylic acid, IV) kojic acid (2-hydroxymethyl-5-hydroxy-gamma-pyrone) and V) chelidonic acid (gamma-pyrone-2,6-dicarboxylic acid). […] Clinical Pathophysiology (Russian), in press].
Thus, according to the model of the mechanism of ligand receptor binding of said opioid (or opioid like) receptor, the prerequisites for gamma-pyrones receptor activity are 1) a carboxy group in position 2 of the pyranone ring, 2) a carbonyl group in position 4 of the pyranone ring, and 3) a substituent in position 5 which can participate in Ca^2+ chelation. […] Clinical Pathophysiology (Russian), in press]. Based on these observations, several conclusions concerning the potential effect of substituents in positions 3, 5 and 6 on the stability of ligand-receptor complex can be drawn. The presence of a carboxy group in position 6 (meconic acid, II) increases ligand affinity to the receptor as compared with comenic acid (I). It may be proposed that the carboxy group in position 6 is involved in additional interaction with one or several polar functional groups of the receptor by formation of intermolecular hydrogen or salt bonds. Based on this, introduction of a hydrophobic substituent in position 6 should reduce the affinity of gamma-pyrone derivatives to said opioid (or opioid-like) receptor. […] An increase in the size of the alkoxy group in position 5 will also lead to a further decrease or even total loss of physiological activity of the gamma-pyrone molecule. Bulky substituents in positions 3, 5 and 6 will decrease the affinity of gamma-pyrones to said receptor, since they will less readily be accommodated in the binding pocket.

[3] = tested on: tetrodotoxin-resistant (TTXr) Nav1.8 slow sodium channels; assay: patch-clamp experiments on dorsal root ganglion neurons; type: cell-based; details: for modulation of the activity of TTXr Nav1.8 slow sodium channels: patch-clamp, extracellular solution Na+ 65 mM, Ca2+ 2 mM, Mg2+ 2 mM
Ehrlich carcinoma = assay: growth of transplanted Ehrlich carcinoma in rats; type: in vivo; details: 50 mg/kg i.p., once per day, 5 times per week, 10 injections; tumor volumes day 13-44 and mortality vs control; Anoceptin 1% solution
Procedure: Comenic acid (in medicinal form, referred to as “Anoceptin™”) was also tested on rats with transplanted tumors (Ehrlich carcinoma) to determine if it stimulated tumor growth (Effect of medicine Anoceptin on the growth of transplantable tumor, State Oncology Institute, 2006, Saint-Petersburg, Russia). Ehrlich carcinoma was transplanted subcutaneously into 20 rats. Forty-eight hours after transplantation, the rats were randomly assigned into groups (10 rats in experimental group, and 10 in control group) and the injections were started. Both groups were injected i.p. (intraperitoneal) once per day, 5 times per week and given a total of 10 injections each. The experimental group was administered 50 mg/kg of comenic acid in each injection, while each in the control group was injected with 0.125 ml of physiological solution. Comenic acid was utilized in its medicinal form (“Anoceptin™”), a 1% solution with ions of proper moiety. For both groups, the size of the tumor was measured on day 13, 16, 20, 23, 27, 30, 37 and 44 of the experiment, and the volumes were calculated. […] The data was determined to be statistically significant, with p<0.05.

solubility = type: physicochemical
animals [4] = assay: continued daily administration to animals (sedative effect, dependency); type: in vivo
Procedure: as §1
The effect from each administration lasts up to 24 hours.

[5] = experiments repeated with the same rats

O=C(O)c1cc(=O)c(O)co1 [Comenic acid, 5-hydroxy-gamma-pyrone-2-carboxylic acid]
Motor activity after the preparation's introduction (n) (male rats of Wistar line; 1 mg/kg of body weight, 60 min): 43.9 ± 6.8 n | Motor activity after the preparation's introduction (n) (male rats of Wistar line; 1 mg/kg of body weight, 90 min): 51.2 ± 8.3 n | Lowering motor activity relative to the control (%) (male rats of Wistar line; 1 mg/kg, 60 min): 13% | Lowering motor activity relative to the Valerian extract (%) (male rats of Wistar line; 1 mg/kg, 60 min): 19% | Lowering motor activity relative to the control (%) (male rats of Wistar line; 1 mg/kg, 90 min): −8% | Lowering motor activity relative to the Valerian extract (%) (male rats of Wistar line; 1 mg/kg, 90 min): −21% | Motor activity after the preparation's introduction (n) (male rats of Wistar line; 10 mg/kg of body weight, 60 min): 37.6 ± 5.9 n | Motor activity after the preparation's introduction (n) (male rats of Wistar line; 10 mg/kg of body weight, 90 min): 41.6 ± 6.8 n | Lowering motor activity relative to the control (%) (male rats of Wistar line; 10 mg/kg, 60 min): 25% | Lowering motor activity relative to the Valerian extract (%) (male rats of Wistar line; 10 mg/kg, 60 min): 22% | Lowering motor activity relative to the control (%) (male rats of Wistar line; 10 mg/kg, 90 min): 12.5% | Lowering motor activity relative to the Valerian extract (%) (male rats of Wistar line; 10 mg/kg, 90 min): −9% | Motor activity after the preparation's introduction (n) (male rats of Wistar line; 50 mg/kg of body weight, 60 min): 18.7 ± 3.3 n | Motor activity after the preparation's introduction (n) (male rats of Wistar line; 50 mg/kg of body weight, 90 min): 15.2 ± 3.1 n | Lowering motor activity relative to the control (%) (male rats of Wistar line; 50 mg/kg, 60 min): 63% | Lowering motor activity relative to the Valerian extract (%) (male rats of Wistar line; 50 mg/kg, 60 min): 52% | Lowering motor activity relative to the control (%) (male rats of Wistar line; 50 mg/kg, 90 min): 68% | Lowering motor activity relative to the Valerian extract (%) (male rats of Wistar line; 50 mg/kg, 90 min): 52% | Motor activity after the preparation's introduction (n) (male rats of Wistar line; 100 mg/kg of body weight, 60 min): 13.4 ± 4.8 n | Motor activity after the preparation's introduction (n) (male rats of Wistar line; 100 mg/kg of body weight, 90 min): 10.3 ± 2.8 n | Lowering motor activity relative to the control (%) (male rats of Wistar line; 100 mg/kg, 60 min): 73% | Lowering motor activity relative to the Valerian extract (%) (male rats of Wistar line; 100 mg/kg, 60 min): 67% | Lowering motor activity relative to the control (%) (male rats of Wistar line; 100 mg/kg, 90 min): 78% | Lowering motor activity relative to the Valerian extract (%) (male rats of Wistar line; 100 mg/kg, 90 min): 53% | development of tolerance (male rats of Wistar line; [5]): no development of tolerance | drug dependency (male rats of Wistar line; [5]): no indication of drug dependency | other side effects of the administration (male rats of Wistar line; [5]): no other side effects | sedative effect compared with that of valerian extract (male rats of Wistar line; rats, open field, 50 and 100 mg/kg): twice | effect on the growth of transplantable tumors of Pliss limphosarcoma (Pliss limphosarcoma): no effect (no stimulation and no inhibition) | treatment of narcotic dependency in animals (animals [1]): effective treatment for the cure of narcotic dependency | order of affinity of the test molecule to the receptor [2]: II>I>III | modulation of the activity of TTXr Nav1.8 slow sodium channels ([3]; listed as I): modulated the activity; also recorded: shown to modulate the functioning | effect on the growth of transplantable tumors of Ehrlich carcinoma (Ehrlich carcinoma): no effect (no stimulation and no inhibition) | solubility in non-polar organic solvents (solubility): practically insoluble | solubility in water and alcohol (solubility): moderately water- and alcohol-soluble | drug dependency after continued daily use (animals [4]; 50 days of continued daily use): without causing drug dependency | duration of the effect after administration (animals [4]; each administration): up to 24 hours

O=C(O)c1cc(=O)c(O)c(C(=O)O)o1 [II, 3-hydroxy-gamma-pyrone-2,6-dicarboxylic acid]
order of affinity of the test molecule to the receptor [2]: II>I>III | modulation of the activity of TTXr Nav1.8 slow sodium channels [3]: modulated the activity

COc1coc(C(=O)O)cc1=O [III, 5-methoxy-gamma-pyrone-2-carboxylic acid]
order of affinity of the test molecule to the receptor [2]: II>I>III | effect on the Nav1.8 slow sodium channel compared with comenic acid (I) ([3]; patch clamp, dorsal root ganglion neurons): decrease in activity | modulation of the activity of TTXr Nav1.8 slow sodium channels [3]: modulated the activity; also recorded: shown to modulate the functioning | solubility in non-polar organic solvents (solubility): practically insoluble | solubility in water and alcohol (solubility): moderately water- and alcohol-soluble

O=c1cc(CO)occ1O [IV, 2-hydroxymethyl-5-hydroxy-gamma-pyrone, reference compound]
modulation of the activity of TTXr Nav1.8 slow sodium channels [3]: did not exhibit such effect; also recorded: did not influence the functioning

O=C(O)c1cc(=O)cc(C(=O)O)o1 [V, gamma-pyrone-2,6-dicarboxylic acid, reference compound]
modulation of the activity of TTXr Nav1.8 slow sodium channels [3]: did not exhibit such effect; also recorded: did not influence the functioning

Reference: patent US8476314B2, “Substance with sedative effect” (Technology Commercialization Corp, priority 2002, dated 2013)
